Laboratory results taken from patent US9090570B2, “Compounds for inflammation and immune-related uses” (Synta Pharmaceuticals Corp., priority 2005, dated 2015).
Structures can show the parent of a compound that is named as a salt.

Test system: IL-2 production
Test: Inhibition of IL-2 production in PHA-activated Jurkat cells (ELISA)
Format: cell-based
Details: Homo sapiens, PHA 2.5 μg/mL, IL-2 ELISA
Protocol: Jurkat cells were placed in a 96 well plate (0.5 million cells per well in 1% FBS medium) then a test compound of this invention was added at different concentrations. After 10 minutes, the cells were activated with PHA (final concentration 2.5 μg/mL) and incubated for 20 hours at 37° C. under CO2. The final volume was 200 μL. Following incubation, the cells were centrifuged and the supernatants collected and stored at −70° C. prior to assaying for IL-2 production. A commercial ELISA kit (IL-2 Eli-pair, Diaclone Research, Besancon, France) was used to detect production of IL-2, from which dose response curves were obtained. The IC50 value was calculated as the concentration at which 50% of maximum IL-2 production after stimulation was inhibited versus a non-stimulation control.

| SMILES | IC50 (20 hours) [nM] | IC50 (Jurkat, 20 h) [nM] |
| --- | --- | --- |
| O=C(Nc1cnc(-c2cc(C(F)(F)F)ccc2Cl)cn1)c1c(F)cccc1F [Compound 1, N-[5-(2-Chloro-5-trifluoromethyl-phenyl)-pyrazin-2-yl]-2,6-difluoro-benzamide] | 2 |  |
| O=C(Nc1cnc(-c2cc(C(F)(F)F)ccc2Cl)cn1)c1c(F)cccc1F [Compound 4, N-[5-(2-Chloro-5-trifluoromethyl-phenyl)-pyrazin-2-yl]-2,6-difluoro-benzamide hydrochloride] |  | 6 |
| Cc1ccc(-c2ncco2)cc1-c1cnc(NC(=O)c2c(F)cncc2F)cn1 [Compound 63, 3,5-Difluoro-N-[5-(2-methyl-5-oxazol-2-yl-phenyl)-pyrazin-2-yl]-isonicotinamide] | 18.5 |  |
| Cc1ccc(-c2ncco2)cc1-c1cnc(NC(=O)c2snnc2C)cn1 [Compound 64, 4-Methyl-[1,2,3]thiadiazole-5-carboxylic acid [5-(2-methyl-5-oxazol-2-yl-phenyl)-pyrazin-2-yl]-amide] | 55 |  |
| Cc1ncccc1C(=O)Nc1cnc(-c2cc(C(F)(F)F)ccc2Cl)cn1 [Compound 111, N-[5-(2-Chloro-5-trifluoromethyl-phenyl)-pyrazin-2-yl]-2-methyl-nicotinamide] | 133 |  |
| O=C(Nc1cnc(-c2cc(C(F)(F)F)ccc2Cl)cn1)C1CCCCC1 [Compound 112, Cyclohexanecarboxylic acid [5-(2-chloro-5-trifluoromethyl-phenyl)-pyrazin-2-yl]-amide] | 22.3 |  |
| COc1ccc(OC)c(-c2cnc(NC(=O)c3ccncc3F)cn2)c1 [Compound 113, N-[5-(2,5-Dimethoxy-phenyl)-pyrazin-2-yl]-3-fluoro-isonicotinamide] | 207 |  |
| O=C(Nc1ncc(-c2cc(C(F)(F)F)ccc2Cl)cn1)c1c(F)cccc1F [Compound 116, N-[5-(2-Chloro-5-trifluoromethyl-phenyl)-pyrimidin-2-yl]-2,6-difluoro-benzamide] | 118 |  |
| COc1ccc(OC)c(-c2cnc(NC(=O)c3ccncc3C)cn2)c1 [Compound 117, N-[5-(2,5-Dimethoxy-phenyl)-pyrazin-2-yl]-3-methyl-isonicotinamide] | 145 |  |
| COc1ccc(OC)c(-c2cnc(NC(=O)c3c(F)cncc3F)cn2)c1 [Compound 118, N-[5-(2,5-Dimethoxy-phenyl)-pyrazin-2-yl]-3,5-difluoro-isonicotinamide] | 34 |  |
| COc1ccc(OC)c(-c2cnc(NC(=O)c3snnc3C)cn2)c1 [Compound 119, 4-Methyl-[1,2,3]thiadiazole-5-carboxylic acid [5-(2,5-dimethoxy-phenyl)-pyrazin-2-yl]-amide] | 302 |  |
| Cc1ccc(-c2ncco2)cc1-c1cnc(NC(=O)C2CCCCC2)cn1 [Compound 121, Cyclohexanecarboxylic acid [5-(2-methyl-5-oxazol-2-yl-phenyl)-pyrazin-2-yl]-amide] | 38.5 |  |

More lines, main results first:

| IC50 (20 hours) [nM] | SMILES | IC50 (Jurkat, 20 h) [nM] |
| --- | --- | --- |
| 115 | O=C(Nc1cnc(-c2cc(C(F)(F)F)ccc2Cl)cn1)c1ccncc1F [Compound 2, N-[5-(2-Chloro-5-trifluoromethyl-phenyl)-pyrazin-2-yl]-3-fluoro-isonicotinamide] |  |
| > 1000 | O=C(Nc1ccc(-c2cc(C(F)(F)F)ccc2Cl)nn1)c1c(F)cccc1F [Compound 60, N-[6-(2-Chloro-5-trifluoromethyl-phenyl)-pyridazin-3-yl]-2,6-difluoro-benzamide] |  |
| 50.5 | Cc1ccc(-c2ncco2)cc1-c1cnc(NC(=O)c2ccncc2F)cn1 [Compound 61, 3-Fluoro-N-[5-(2-methyl-5-oxazol-2-yl-phenyl)-pyrazin-2-yl]-isonicotinamide] |  |
| 32.2 | Cc1cnccc1C(=O)Nc1cnc(-c2cc(-c3ncco3)ccc2C)cn1 [Compound 62, 3-Methyl-N-[5-(2-methyl-5-oxazol-2-yl-phenyl)-pyrazin-2-yl]-isonicotinamide] |  |
| 49.2 | COC(=O)c1ccc(C)c(-c2cnc(NC(=O)c3ccncc3F)cn2)c1 [Compound 109, 3-{5-[(3-Fluoro-pyridine-4-carbonyl)-amino]-pyrazin-2-yl}-4-methyl-benzoic acid methyl ester] |  |
| 15.7 | COc1ccc(OC)c(-c2cnc(NC(=O)c3c(F)cccc3F)cn2)c1 [Compound 110, N-[5-(2,5-Dimethoxy-phenyl)-pyrazin-2-yl]-2,6-difluoro-benzamide] |  |
| 61.6 | Cc1nnsc1C(=O)Nc1cnc(-c2cc(C(F)(F)F)ccc2Cl)cn1 [Compound 114, 4-Methyl-[1,2,3]thiadiazole-5-carboxylic acid [5-(2-chloro-5-trifluoromethyl-phenyl)-pyrazin-2-yl]-amide] |  |
| 4.1 | O=C(Nc1cnc(-c2cc(C(F)(F)F)ccc2Cl)cn1)c1c(F)cncc1F [Compound 115, N-[5-(2-Chloro-5-trifluoromethyl-phenyl)-pyrazin-2-yl]-3,5-difluoro-isonicotinamide] |  |
| 352 | COc1ccc(OC)c(-c2cnc(NC(=O)C3CCCCC3)cn2)c1 [Compound 120, Cyclohexanecarboxylic acid [5-(2,5-dimethoxy-phenyl)-pyrazin-2-yl]-amide] |  |
| 654 | O=C(Nc1cnc(-c2cc(C(F)(F)F)ccc2Cl)nc1)c1c(F)cccc1F [Compound 122, N-[2-(2-Chloro-5-trifluoromethyl-phenyl)-pyrimidin-5-yl]-2,6-difluoro-benzamide] |  |
